# Laboratory results taken from US8110583B2, “Tetrahydroquinoline derivatives” (Merck Patent GmbH, priority 2005, dated 2012).
# System: cells
# Experiment: Cell cycle analysis (G2/M arrest)
# Format: cell-based
# Conditions: single substances; no data given
structure (smiles),measurement,value
N=C(N)c1ccc(OCCCCCOc2ccc(C(=N)N)cc2)cc1 [pentamidine],effect on the cell cycle,maintain cells in the G2/M cell cycle
